Source: patent US20130252983A1, “ACTIVATING PHOSPHORYLATION SITE ON GLUTAMINASE C” (CORNELL UNIVERSITY, priority 2010, published 2013)

Target: T1, GAC (S103A) (Mus musculus, UniProt D3Z7P3, S103A)
T1 construct: expressed in transfected cells; host or cells: Dbl-transformed NIH 3T3 cells
T1 sequence (D3Z7P3 55-603 isoform D3Z7P3-2 S103A): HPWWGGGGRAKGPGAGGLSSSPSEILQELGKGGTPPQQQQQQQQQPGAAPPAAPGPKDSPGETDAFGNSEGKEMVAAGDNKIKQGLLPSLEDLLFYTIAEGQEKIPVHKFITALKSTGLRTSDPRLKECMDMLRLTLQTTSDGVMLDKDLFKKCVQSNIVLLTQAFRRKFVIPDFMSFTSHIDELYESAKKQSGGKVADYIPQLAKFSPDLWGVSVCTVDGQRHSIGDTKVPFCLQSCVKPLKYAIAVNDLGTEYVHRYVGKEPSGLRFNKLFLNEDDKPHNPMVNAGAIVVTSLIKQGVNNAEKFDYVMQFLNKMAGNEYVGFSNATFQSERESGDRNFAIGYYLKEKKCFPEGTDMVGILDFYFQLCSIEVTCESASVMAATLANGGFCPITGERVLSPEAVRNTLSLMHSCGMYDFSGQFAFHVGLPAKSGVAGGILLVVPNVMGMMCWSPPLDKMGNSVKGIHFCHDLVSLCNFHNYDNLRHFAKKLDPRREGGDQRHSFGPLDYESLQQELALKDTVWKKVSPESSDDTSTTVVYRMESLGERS
Assay: Glutaminase activity of immunoprecipitated GAC (S103A) from treated Dbl-transformed cells
Assay type: cell-based
Conditions: 10 μM, 48 hours
Description: Next the effect of the substitution of an alanine for a serine at amino acid 103 on the enzymatic activity of GAC was examined, as well as its sensitivity to the small molecule, 968. […] Following transfection, the cells were treated for 48 hours with 968 (10 μM) and then harvested. The different GAC proteins were then isolated by immunoprecipitation and assayed for their glutaminase activity in the absence (i.e., basal activity) and presence of phosphate (FIG. 24). […] Initially, the high glutaminase activity of the GAC (S103A) mutant was surprising as it had been predicted that this phospho-defective mutant should have a reduced enzymatic activity. […] When this hydrogen bond is broken, either by mutating the serine to an alanine or upon the phosphorylation of this serine residue, GAC transitions to an active conformation. […] Thus, Serine 103 plays a critical role in the regulation of the glutaminase activity of GAC.

CN(C)c1ccc(C2Nc3ccc4ccccc4c3C3=C2C(=O)CC(C)(C)C3)cc1Br (stereo not shown) [Compound 968, 5-[3-bromo-4-(dimethylamino)phenyl]-2,2-dimethyl-2,3,5,6-tetrahydrobenzo[a]]
glutaminase activity of GAC (S103A): not affected
